In the NIST ThermoML archive (doi:10.1021/je800100m):
± gives the expanded uncertainty stated by the source.

Legend:
[1] = Liquid; for speed of sound: 101.3 kPa, Sing-around technique in a fixed-path interferometer; for mass density: 101.33 kPa, Pycnometric method
[2] = xn = mol fraction of the nth substance listed; settings: 308.15 K, 101 kPa, Liquid, Sing-around technique in a fixed-path interferometer

Cc1ccccc1C [1,2-dimethylbenzene]
[1], 298.15 K
Settings | mass density [kg/m3] | speed of sound [m/s]
– | 875.99 ± 5.6 | 1344 ± 5.4

Cc1ccc(C)cc1 [1,4-dimethylbenzene]
[1], 298.15 K
Settings | mass density [kg/m3] | speed of sound [m/s]
– | 856.58 ± 5.3 | 1310.1 ± 5.4

Cc1ccccc1N [2-methylaniline]
[1]
Settings | mass density [kg/m3] | speed of sound [m/s]
298.15 K | 994.28 ± 7.2 | –
308.15 K | – | 1603 ± 5

Cc1ccccc1N [2-methylaniline] + Cc1ccc(C)cc1
[2]
Settings | speed of sound [m/s]
x1 = 0.0534 | 1287 ± 5
x1 = 0.1009 | 1295 ± 5
x1 = 0.1707 | 1308 ± 5
x1 = 0.2483 | 1325 ± 5
x1 = 0.32 | 1342 ± 5
x1 = 0.3949 | 1361 ± 5
x1 = 0.4559 | 1378 ± 5
x1 = 0.5332 | 1402 ± 5
x1 = 0.6007 | 1423 ± 5
x1 = 0.6897 | 1455 ± 5
x1 = 0.7417 | 1475 ± 5
x1 = 0.8009 | 1500 ± 5
x1 = 0.8668 | 1530 ± 5
x1 = 0.9374 | 1567 ± 5

Cc1ccccc1N [2-methylaniline] + Cc1ccccc1
[2]
Settings | speed of sound [m/s]
x1 = 0.0457 | 1270 ± 5
x1 = 0.0998 | 1283 ± 5
x1 = 0.1516 | 1296 ± 5
x1 = 0.2017 | 1308 ± 5
x1 = 0.2773 | 1327 ± 5
x1 = 0.3496 | 1346 ± 5
x1 = 0.407 | 1359 ± 5
x1 = 0.4797 | 1381 ± 5
x1 = 0.5882 | 1414 ± 5
x1 = 0.6667 | 1440 ± 5
x1 = 0.7464 | 1470 ± 5
x1 = 0.8033 | 1494 ± 5
x1 = 0.8647 | 1523 ± 5
x1 = 0.9223 | 1554 ± 5

Cc1ccccc1N [2-methylaniline] + Cc1ccccc1C
[2]
Settings | speed of sound [m/s]
x1 = 0.0799 | 1325 ± 5
x1 = 0.1313 | 1328 ± 5
x1 = 0.1977 | 1333 ± 5
x1 = 0.2507 | 1338 ± 5
x1 = 0.3003 | 1345 ± 5
x1 = 0.3663 | 1355 ± 5
x1 = 0.4456 | 1370 ± 5
x1 = 0.508 | 1385 ± 5
x1 = 0.5892 | 1408 ± 5
x1 = 0.6666 | 1434 ± 5
x1 = 0.7287 | 1459 ± 5
x1 = 0.7884 | 1485 ± 5
x1 = 0.8314 | 1505 ± 5
x1 = 0.909 | 1547 ± 5

Cc1ccccc1 [toluene]
[1], 298.15 K
Settings | mass density [kg/m3] | speed of sound [m/s]
– | 862.21 ± 5.4 | 1304.6 ± 5.4
